According to patent EP0073758B1, “TREATMENT OF INFLAMMATORY VIRAL INFECTIONS, ACNE, DERMATITIS AND ARTHRITIS CONDITIONS” (priority 1981, dated 1982):

Columns and labels:
solubility in DMSO = format: physicochemical; details: per one milliliter DMSO; maximum solubility not determined
Protocol: Topical applications were prepared for the treatment of the external conditions, deseases and symptoms of arthritis, rheumatism, and rheumatoid arthritis or similar conditions. Phenolphthalein was formulated with a topical carrier of dimethyl sulfoxide (DMSO) to aid in the application of phenolphthalein to, and its absorption into, the affected area for the relief of pain and the treatment of the area. It has been discovered that DMSO is an especially effective solvent for phenolphthalein. As little as one milliliter of liquid DMSO will dissolve two-hundred milligrams of phenolphthalein, or powders containing phenolphthalein. This factor coupled with the known ability of DMSO to penetrate organic tissue are believed to allow smaller dosages of phenolphthalein to be used in both oral and topical applications as well as in preparation of injectable solutions. For example the DMSO/phenol- phthalein solution can be formulated into topical carriers which should enhance the penetration of phenolphthalein into the skin, or ingested.

[1] = oral dosages against canker sores; format: in vivo
[2] = ingested into the human body; rest excreted in the feces; cited from earlier work
Herpes Labialis = format: in vivo, patients
Protocol: In an informal clinical study 41 patients with symptoms of Herpes Labialis were treated with oral dosages of phenolphthalein. The patients were treated at different times over a period of about two months. The initial dosage was one hundred milligrams administered every 8 hours for the first day and every 12 hours thereafter. […] Of the 41 patients treated, 39 made complete recovery within two days without any noticeable development of the cold sore. The other two patients made complete recovery with no swelling or visible evidence of the cold sore remaining after three days. A control group of 24 patients with Herpes Labialis history were selected at random from clinical files as a control group. Of the 24 patients, 5 were excluded because of the total absence of early indications of infection. The other 19 patients were treated conventionally over a 10 day period. Only 4 experienced even partial relief from developing cold sores and 15 developed active cold sores and blisters which lasted up to 4 weeks.
The results of this informal study indicate that phenolphthalein is a very effective drug for preventing and arresting the development of cold sores and blisters at the time of initial appearance in patients.

[3] = topical application in acne; format: in vivo; details: 500 milligrams in 57 g of carrier
Excerpt: In preparing topical applications for the treatment of external conditions, such as dermatitis and acne as well as arthritis, rheumatism, and related conditions, it is within the scope of the invention to formulate phenolphthalein with suitable carriers and bases to aid in the application to, or absorption into, the target or affected area. One group of carriers is the oil-based carriers for external application this group includes dimethyl sulfoxide (DMSO), petrolatum, mineral oil, and anhydrous lanolin. In most topical applications the concentration of the phenolphthalein in the carrier may vary widely. […] It is believed that a concentration of at least about 250 milligrams per 28 g of carrier will be effective.

[4] = test system: Herpes Simplex infections; assay: oral dosages administered to victims of Herpes Simplex infections; format: in vivo
[5] = stated as well known; cited from earlier work

O=C1OC(c2ccc(O)cc2)(c2ccc(O)cc2)c2ccccc21 [phenolphthalein, 3,3 - Bis(p - hydroxyphenyl) - phthalide]
amount dissolved by one milliliter of liquid DMSO (solubility in DMSO): two-hundred | relief and cure of canker sores [1]: effective to relieve and cure canker sores within a matter of hours | active drug in solution absorbed into the blood stream [2]: less than 15% | laxative effect (Herpes Labialis; human, in vivo, po): complaints related to the laxative effect | patients who made complete recovery within two days without any noticeable development of the cold sore (Herpes Labialis; of the 41 patients treated, oral, initially one hundred milligrams, later 30 milligrams, every 8 hours first day, every 12 hours thereafter): 39 | patients who made complete recovery with no swelling or visible evidence of the cold sore remaining after three days (Herpes Labialis; of the 41 patients treated, same oral regimen): two | follow-up observations: development of Herpes Labialis (Herpes Labialis; the 41 patients treated): no development of Herpes Labialis | effect against acne [3]: effective against acne | treatment of Herpes Simplex infections, including cold sores, fever blisters and Herpes Genitalis [4]: successfully administered | solubility in water [5]: highly insoluble in water
